Patent USRE38102E1, “Use of a pyridazinone derivative” (Orion Corporation, priority 1998, dated 2003)

Assays:
[1] = test system: guinea-pig papillary muscle; assay: Positive inotropic effect in paced cardiac muscle; type: cell-based; details: Cavia porcellus; right ventricular papillary muscle paced at 1 Hz, 37° C.
Method: Positive Inotropic Effect in Paced Cardiac Muscle
Four weeks old guinea-pigs weighing about 350 g were used. In the experiments the right ventricular papillary muscle of the heart was mounted for measurement of isometric tension in organ bath containing modified Tyrode solution (37° C.) bubbled with 95% O2, 5% CO2. The composition of the modified Tyrode solution was (mM): NaCl 135; MgCl2.6H2O 1; KCl 5; CaCl2.2H2O 2; NaHCO3 15; Na2HPO4.2H2O 1; glucose 10; pH 7.3-7.4. The volume of the open horizontal chamber was 1 ml and flow rate of the superfusion solution running through the chamber was 5 ml/min. Papillary muscle (<1 mm in diameter) was stretched horizontally between force-displacement transducer (FT 0.3 and a needle fixed to the bottom of the chamber. An initial stretching tension of 300 mg was applied to the muscle which was electrically stimulated (Stimulator model SEC 48 F, Grass Instruments) via platinum field electrodes at 1 Hz with rectangular pulses (duration 4 ms). The stimulation occurred at twice threshold voltage in order to achieve simultaneous activation of all myocytes in the […]. A force-displacement transducer was connected to a polygraph D.C. driver amplifier (model 7 DA, Grass Instruments) and a programmable scanner (model SI 5010, Tetronix). […]

[2] = test system: skinned cardiac fiber (left ventricular papillary muscle); assay: Calcium sensitizing effect in skinned cardiac fiber; type: cell-based, guinea-pig; details: pCa 5.6; concentration not given
Excerpt: Calcium Sensitizing Effect in Skinned Cardiac Fiber
Left ventricular papillary muscle of the guinea-pig was dissected and rinsed in ice-cold Tyrode solution. Thereafter the papillary muscle was immersed into a solution containing (mM): Potassium acetate 74.7, EGTA 10, MgSO4 5.4, ATP-Na2 4, DTE 1, MOPS 20, pH 7.0 (by 1 M KOH). Subsequently, the papillary muscle was sonicated at 10 Watt for 60 sec in this ice-cold solution. The distance between ultrasound probe and the papillary muscle was 10 mm. The fibers (<200 μm in diameter) were dissected from surface of sonicated papillary muscles. Moreover, the sonicated and dissected fibers were kept for 30 min in a “skinning” solution (ice-cold) containing saponin (250 μg/ml) in addition to the other constituents. Continuous magnetic stirring was used during this treatment.
The fibers which were further dissected (<100 μm in diameter) were then mounted horizontally with a glue (cellulose acetate in acetone) between a steel-rod extension of isometric force transducer (AME-801 strain gauge, Horten Electronics, Norway) and a glass rod attached to a micro-manipulator. The force transducer was connected to an amplifier. The fibers were kept in the “relaxing” solution containing (mM): imidazole 30, ATP-Na2 10, NaN3 5, EGTA 5, MgCl2 12.5, and 350 U creatinkinase. The temperature of the solution was 22° C. and the pH was set to 6.7 by 1 M KOH. […]

Compound | EC50 [1] [nM] | Calcium sensitizing effect in skinned fiber: Change in force % of control [2]
CC(=O)Nc1ccc(C2=NNC(=O)C[C@H]2C)cc1 [Compound A, (R)-N-[4-(1,4,5,6-tetrahydro-4-methyl-6-oxo-3-pyridazinyl)phenyl]acetamide] | 100 | –
Cc1[nH]c(=O)c(C#N)cc1-c1ccncc1 [Milrinone, milrinone] | 2000 | ineffective
